Test results from patent publication US5830910A (priority 1995, dated 1998).
“Also recorded” adds a separate entry of the source. Read-outs that look alike come from different tables or passages of the source.

Assays:
Format in all cases: cell-based, rat
[1] = test system: neuronal [Ca^2+]i in cultured hippocampal neurons; experiment: measurement of [Ca^2+]i, fura-2 imaging; conditions: for reduction in peak [Ca^2+]i response to glutamate: 1 h
Text: (§1) Dissociated embryonic rat hippocampal cell cultures were established and maintained. All procedures conformed with the NIH Guide for the Care and Use of Laboratory Animals and were approved by the University of Kentucky Animal Care and Use Committee. Cultures were maintained on a polyethyleneimine-coated substrate in plastic 35-mm dishes or 96 wall plates (for cell survival studies) or glass-bottom 35-mm dishes (for [Ca^2+ ]i imaging studies). The cell density was ^~ 70-100 cells/mm^2. Cells were maintained in Eagle's minimum essential medium supplemented 10% with fetal bovine serum and containing 20 mM sodium pyruvate. […] Aβ25-35 (Bachem, lot ZJ744) and Aβ1-40 (Bachem, lot ZK600) were stored in the lyophilized form, and stocks were prepared immediately before use by dissolving the peptide at a concentration of 1 mM in sterile distilled water. […] Glutamate and colchicine (Sigma) were prepared as 200-500x stocks in saline. Cytochalasins D and E (Sigma) and calcium ionophore 4-bromo-A23187 (Calbiochem) were prepared as 500x stocks in dimethyl sulfoxide. Vitamin E (α-tocopherol; Sigma) was prepared as a 500x stock in ethanol. Nordihydroguaiaretic acid and FeSo4 were prepared as 500x stocks in sterile water.
Fluorescence ratio imaging of the Ca^2+ indicator dye fura-2 was used to quantify [Ca^2+ ]i in neuronal somata. Cells were incubated for 30-40 min in the presence of 2 μM acetoxymethyl ester form of the [Ca^2+ ]i indicator dye fura-2 and were then washed twice (2 ml/wash) with fresh medium and allowed to incubate at least 40 min before imaging. Immediately before imaging, the normal culture medium was replaced with Hanks' balanced saline solution (GIBCO) containing 10 mM HEPES buffer and 10 mM of glucose. Cells were imaged using a Zeiss Attofluor system with a oil objective or Quantex system with a 40x oil objective. The ratio of the fluorescence emission using two different excitation wavelengths (334 and 380 nm) was used to determine [Ca^2+ ]i. The system was calibrated using solutions containing either no Ca^2+ or a saturating level of Ca^2+ (1 mM) according to the following formula: [Ca^2+ ]i =KD [(R-Rmin) / (Rmax -R)] (F0 /FS). Values represent the average [Ca^2+ ]i in the neuronal cell body. Experimental treatments were added to the bathing medium by dilution from 100-500x stocks.
(A) Cultures were pretreated for 1 hr with 100 nM cytochalasin D and then [Ca^2+ ]i in neurons was monitored prior to and following exposure to 50 μM glutamate. The records represent the mean [Ca^2+ ]i in 8-12 neurons. Similar results were obtained in 4 separate experiments.
(B) Aβ-induced potentiation of [Ca^2+ ]i response to glutamate is abrogated by cytochalasin D. Cultures were left untreated (Control) or were exposed to 20 μM Aβ25-35 for 6 hr or cytochalasin D plus Aβ25-35 for 6 hr. The [Ca^2+ ]i was then monitored prior to following exposure to 50 μM glutamate. Values represent the means of 8-14 neurons. Similar results were obtained in 3 separate experiments.
(C) Cultures were pretreated for 3 hr with 50 μM Aβ alone or in combination with 100 nM cytochalasin D. The [Ca^2+ ]i in neurons was then monitored prior to and following exposure to 50 mM KCl. Values represent the mean of 14-23 neurons. Similar results were obtained in a separate experiment.
(D) Cultures were pretreated for 1 h with 100 nM cytochalasin D. The [Ca^2+ ]i in neurons was measured immediately prior to, and at 5 min following, exposure to the indicated concentrations of glutamate. Values represent the means and SEM of determinations made in 17-26 neurons. *P<0.05 (10 μM glutamate), P<0.02 (50 μM glutamate), P<0.01 (100 μAM glutamate) compared to corresponding control values.
FIG. 9. Cultures were pretreated for 3 h with vehicle (control) or 10 μM jasplakinolide. The [Ca^2+ ]i was monitored prior to and following exposure to 50 μM glutamate. Values represent the mean of determinations made in 10-12 neurons. Similar results were obtained in two additional experiments.
FIG. 10. […]

[2] = test system: cultured hippocampal neurons; conditions: 100 nM cotreated; 50 μM Aβ25-35, 24 hr
[3] = test system: cultured hippocampal neurons; experiment: cells; conditions: for viability at 0.1 µM: Rattus norvegicus, Hippocampal neuron
Text: as §1
Neuronal survival was quantified by counting viable neurons in the same microscope fields (10x objective) immediately before experimental treatment and at time points after treatment. In addition, cells were grown in 96-well plates and Alamar blue fluorescence (Alamar Laboratories)was quantified by using a fluorescence plate reader. Alamar Blue is a non-fluorescent substrate that, after reduction by cell metabolites, becomes fluorescent. Usually neurons that died in the time intervals (20-48 h) between examination points were absent. Viability of the remaining neurons was assessed by morphological criteria. Neutrons with intact neurites of uniform diameter and a soma with a smooth, round appearance were considered viable, whereas neurons with fragmented neurites and a vacuolated or swollen soma were considered nonviable. Survival values were expressed as percentages of the initial number of neurons present before experimental treatment. Statistical comparisons were made using ANOVA and Scheffe post-hoc tests for pairwise comparisons.
Values represent the means and SEM of 4 separate cultures (cell counts) or 4 culture wells (Alamar blue assay). ^a p<0.05 compared to control value. ^b p<0.001 compound to control value. ^c p<0.01 compared to value for glutamate-treated cultures. ^d p<0.005 compared to value for glutamate-treated cultures. ^e p<0.001 compared to value for Aβ-treated cultures. ^f p<0.001 compared to value for cultures treated with 20 μM glutamate. ^g p<0.001 compared to cultures treated with 50 μM Aβ+20 μM glutamate. n.d. not determined.

[4] = 100 μM Glutamate + 10 nM substance
[5] = 100 μM Glutamate + 100 nM substance

Q: `COc1cc2c(c(OC)c1OC)-c1ccc(OC)c(=O)cc1[C@@H](NC(C)=O)CC2` [Colchicine, colchicine, reference compound] was tested. Which “effect on [Ca^2+]i response to glutamate” value ([1]; 100 nM) did it give?
A: did not attenuate

Q: And the “rest [Ca^2+]i, alone” value ([1]; alone, data not shown)?
A: elevation of rest [Ca^2+ ]i

Q: And the “effect on [Ca^2+]i response to Aβ” value ([1]; data not shown)?
A: did not attenuate

Q: And the “effect on Aβ neurotoxicity” value [2]?
A: exacerbated Aβ toxicity

Q: And the “effect on neuronal survival, alone” value ([3]; 100 nM, alone)?
A: reduced survival

Q: What about the viability at 0.1 µM ([3]; 100 nM, alone, read-out: Neuron Survival (% of control), Alamar Blue Assay) of the same compound?
A: 40 ± 5.2%

Q: What about the viability at 0.1 µM ([3]; 50 μM Aβ + 100 nM substance, read-out: Neuron Survival (% of control), Alamar Blue Assay) of the same compound?
A: 23 ± 2.8%

Q: What about the viability at 0.1 µM ([3]; 100 μM Glutamate + 100 nM substance, read-out: Neuron Survival (% of control), Alamar Blue Assay) of the same compound?
A: 12 ± 2.2%

Q: What about the viability at 0.1 µM ([3]; read-out: Neuron Survival (% of control), Cell Counts, 100 nM, alone) of the same compound?
A: 85 ± 1.9%

Q: Which results are given for `C=C1[C@@H](C)[C@H]2[C@H](Cc3ccccc3)NC(=O)[C@]23[C@H](OC(C)=O)/C=C/[C@@](C)(O)C(=O)[C@@H](C)C/C=C/[C@H]3[C@@H]1O` [Cytochalasin D, cytochalasin D]?
A: effect on [Ca^2+]i response to calcium ionophore A23187 ([1]; 100 nM pretreatment, 500 nM A23187): did not attenuate; also recorded: does not affect; effect on K^+-induced elevation of [Ca^2+]i ([1]; 100 nM pretreatment, 50 mM KCl): suppressed; reduction in peak [Ca^2+]i response to glutamate ([1]; 100 nM, 10 μM glutamate, P<0.05): approximately 60 nM; reduction in peak [Ca^2+]i response to glutamate ([1]; 100 nM, 50 μM glutamate, P<0.02): approximately 170 nM; reduction in peak [Ca^2+]i response to glutamate ([1]; 100 nM, 100 μM glutamate, P<0.01): ~460 nM; rest [Ca^2+]i after Aβ exposure ([1]; 100 nM, 1 h pretreatment, 50 μM Aβ for 3 and 6 h): not significantly elevated; reduction of [Ca^2+]i response to glutamate ([1]; 100 nM, 1 hr pretreatment, 50 μM glutamate): approximately 30%; effect on Aβ-induced potentiation of [Ca^2+]i response to glutamate ([1]; Aβ pretreatment, 50 μM glutamate): completely blocked; also recorded: suppressed; also recorded: abrogated; [Ca^2+]i responses to glutamate, Aβ, and membrane depolarization ([1]; pretreated): attenuated; effect on Aβ neurotoxicity [2]: essentially eliminated; Neuron Survival (% of control), Alamar Blue Assay ([3]; 10 nM, alone): 97 ± 7.8 % of control; Neuron Survival (% of control), Cell Counts ([3]; 10 nM, alone): 89 ± 2.4 % of control; Neuron Survival (% of control), Alamar Blue Assay ([3]; 100 nM, alone): 91 ± 5.9 % of control; Neuron Survival (% of control), Cell Counts ([3]; 100 nM, alone): 87 ± 2.2 % of control; Neuron Survival (% of control), Alamar Blue Assay ([3]; 50 μM Aβ + 10 nM substance): 55 ± 2.5 % of control; Neuron Survival (% of control), Alamar Blue Assay ([3]; 50 μM Aβ + 100 nM substance): 74 ± 1.3 % of control; Neuron Survival (% of control), Alamar Blue Assay ([3]; 50 μM Aβ + 20 μM Glut with 100 nM substance): 63 ± 2.5 % of control; Neuron Survival (% of control), Alamar Blue Assay [3, 4]: 43 ± 6.7 % of control; Neuron Survival (% of control), Cell Counts [3, 4]: 54 ± 7.4 % of control; Neuron Survival (% of control), Alamar Blue Assay [3, 5]: 42 ± 4.2 % of control; Neuron Survival (% of control), Cell Counts [3, 5]: 45 ± 9.8 % of control; effect on neuronal survival, alone ([3]; 1-100 nM, alone): no significant effect on neuronal survival
